Results taken from patent US20210059959A1, “USE OF CANNABINOIDS IN THE TREATMENT OF MENTAL DISORDERS” (GW Pharma Limited, priority 2015, published 2021).

Test system: participants with schizophrenia or related psychotic disorder
Assay: Scale for the Assessment of Negative Symptoms (SANS), double-blind placebo-controlled study of CBD as adjunctive therapy
Type: in vivo, human
Protocol: Example 1 below describes the use of a highly purified cannabis extract comprising cannabidiol (CBD) in a human clinical trial. Example 1 describes data produced in a double-blind, randomised, placebo-controlled, parallel group study of highly purified CBD as adjunctive therapy in first line treatment of schizophrenia or related psychotic disorder.
An eight-week, multi-centre, double-blind, randomised, placebo-controlled, parallel group study was conducted with the aim to determine the efficacy, safety and tolerability of highly purified CBD as adjunctive therapy in first line treatment of schizophrenia or related psychotic disorder.
This study evaluated the efficacy of highly purified CBD compared with placebo on the participant's PANSS Total score, ‘P’, ‘N’, ‘G’, SANS and BACS scores.
Changes from baseline in PANSS scores (Total, ‘P’, ‘N’ and ‘G’), SANS and BACS were recorded at the start of the study (baseline) and at the end of treatment (after 6 weeks treatment with CBD or placebo).
For inclusion in the study participants were required to be male or female aged 18 to 65 years, diagnosed with schizophrenia or a related psychotic disorder (such as schizoaffective or schizophreniform disorder) as defined by the Diagnostic and Statistical Manual of Mental Disorders Version 4. Participants must have been treated for a minimum of four-weeks and be on a stable dose of their current antipsychotic medication. […] A PANSS score in excess of 60 infers that the patient has symptoms related to schizophrenia or related disorders.
The participants were randomised to one of two treatment groups which each consisted of 39 participants. Treatment was administered as either 5 ml CBD (100 mg/ml) oral solution to be taken twice daily or 5 ml matched placebo oral solution to be taken twice daily.
Scale for the Assessment of Negative Symptoms (SANS)
SANS assesses five symptom complexes to obtain clinical ratings of negative symptoms in participants with schizophrenia or related psychotic disorder. They are: affective blunting; alogia (impoverished thinking); avolition/apathy; anhedonia/asociality; and disturbance of attention.
Assessments are conducted on a six-point scale (0=not at all to 5=severe). This scale was measured at each assessment visit (Visit 1-4)

[1] = CBD adjunct, 6 weeks, all patients
[2] = CBD adjunct, 6 weeks, patients on amisulpride
[3] = CBD adjunct, 6 weeks, patients on aripiprazole
[4] = CBD adjunct, 6 weeks, patients on olanzapine
[5] = CBD adjunct, 6 weeks, patients on other antipsychotics
[6] = CBD adjunct, 6 weeks, patients on quetiapine
[7] = CBD adjunct, 6 weeks, patients on risperidone

Compound: C=C(C)[C@@H]1CCC(C)=C[C@H]1c1c(O)cc(CCCCC)cc1O [CBD, Cannabidiol]
- Change in baseline scores, SANS question 15: Impersistence at work or school [1]: −0.5
- Change in baseline scores, SANS question 18: Recreational interests and activity [1]: −0.6
- Change in baseline scores, SANS question 19: Sexual interest and activity [1]: −0.4
- Change in baseline scores, SANS question 20: Ability to feel closeness and intimacy [1]: −0.3
- Change in baseline scores, SANS question 21: Relationships with friends and peers [1]: −0.3
- Change in baseline scores, SANS question 22: Global rating of anhedonia [1]: −0.3
- Change in baseline scores, SANS question 23: Social inattentiveness [1]: −0.5
- Change in baseline scores, SANS question 24: Inattentiveness during mental status testing [1]: −0.6
- Change in baseline scores, SANS question 25: Global rating of attention [1]: −0.5
- Change in baseline scores, SANS sub-scale 4 (anhedonia/asociality) [1]: −1.9
- Change in baseline scores, SANS sub-scale 5 (disturbance of attention) [1]: −1.6
- Change in baseline scores, SANS total score [1]: −9.5
- Change in baseline scores, SANS question 15: Impersistence at work or school [2]: −0.5
- Change in baseline scores, SANS question 18: Recreational interests and activity [2]: 0.0
- Change in baseline scores, SANS question 19: Sexual interest and activity [2]: 0.0
- Change in baseline scores, SANS question 20: Ability to feel closeness and intimacy [2]: −0.1
- Change in baseline scores, SANS question 21: Relationships with friends and peers [2]: −0.1
- Change in baseline scores, SANS question 22: Global rating of anhedonia [2]: −0.1
- Change in baseline scores, SANS question 23: Social inattentiveness [2]: −0.1
- Change in baseline scores, SANS question 24: Inattentiveness during mental status testing [2]: −0.8
- Change in baseline scores, SANS question 25: Global rating of attention [2]: 0.0
- Change in baseline scores, SANS score [2]: −2.4
- Change in baseline scores, SANS sub-scale 4 (anhedonia/asociality) [2]: −0.1
- Change in baseline scores, SANS sub-scale 5 (disturbance of attention) [2]: −1.0
- Change in baseline scores, SANS question 15: Impersistence at work or school [3]: −0.3
- Change in baseline scores, SANS question 18: Recreational interests and activity [3]: −0.1
- Change in baseline scores, SANS question 19: Sexual interest and activity [3]: −0.1
- Change in baseline scores, SANS question 20: Ability to feel closeness and intimacy [3]: 0.0
- Change in baseline scores, SANS question 21: Relationships with friends and peers [3]: −0.1
- Change in baseline scores, SANS question 22: Global rating of anhedonia [3]: 0.0
- Change in baseline scores, SANS question 23: Social inattentiveness [3]: −0.4
- Change in baseline scores, SANS question 24: Inattentiveness during mental status testing [3]: −0.5
- Change in baseline scores, SANS question 25: Global rating of attention [3]: −0.4
- Change in baseline scores, SANS score [3]: −4.7
- Change in baseline scores, SANS sub-scale 4 (anhedonia/asociality) [3]: −0.2
- Change in baseline scores, SANS sub-scale 5 (disturbance of attention) [3]: −1.3
- Change in baseline scores, SANS question 15: Impersistence at work or school [4]: −1.2
- Change in baseline scores, SANS question 18: Recreational interests and activity [4]: −1.3
- Change in baseline scores, SANS question 19: Sexual interest and activity [4]: −1.0
- Change in baseline scores, SANS question 20: Ability to feel closeness and intimacy [4]: −1.0
- Change in baseline scores, SANS question 21: Relationships with friends and peers [4]: −0.6
- Change in baseline scores, SANS question 22: Global rating of anhedonia [4]: −0.8
- Change in baseline scores, SANS question 23: Social inattentiveness [4]: −0.9
- Change in baseline scores, SANS question 24: Inattentiveness during mental status testing [4]: −0.7
- Change in baseline scores, SANS question 25: Global rating of attention [4]: −0.9
- Change in baseline scores, SANS score [4]: −20.5
- Change in baseline scores, SANS sub-scale 4 (anhedonia/asociality) [4]: −4.9
- Change in baseline scores, SANS sub-scale 5 (disturbance of attention) [4]: −2.5
- Change in baseline scores, SANS question 18: Recreational interests and activity [5]: −0.4
- Change in baseline scores, SANS question 19: Sexual interest and activity [5]: −0.3
- Change in baseline scores, SANS question 20: Ability to feel closeness and intimacy [5]: −0.1
- Change in baseline scores, SANS question 21: Relationships with friends and peers [5]: −0.2
- Change in baseline scores, SANS question 22: Global rating of anhedonia [5]: −0.2
- Change in baseline scores, SANS question 23: Social inattentiveness [5]: −0.9
- Change in baseline scores, SANS question 24: Inattentiveness during mental status testing [5]: −1.3
- Change in baseline scores, SANS question 25: Global rating of attention [5]: −0.3
- Change in baseline scores, SANS score [5]: −10.6
- Change in baseline scores, SANS sub-scale 4 (anhedonia/asociality) [5]: −1.2
- Change in baseline scores, SANS sub-scale 5 (disturbance of attention) [5]: −2.5
- Change in baseline scores, SANS question 18: Recreational interests and activity [6]: −1.3
- Change in baseline scores, SANS question 19: Sexual interest and activity [6]: −1.5
- Change in baseline scores, SANS question 20: Ability to feel closeness and intimacy [6]: −0.4
- Change in baseline scores, SANS question 21: Relationships with friends and peers [6]: −0.7
- Change in baseline scores, SANS question 22: Global rating of anhedonia [6]: −1.3
- Change in baseline scores, SANS question 23: Social inattentiveness [6]: −0.6
- Change in baseline scores, SANS question 24: Inattentiveness during mental status testing [6]: −0.9
- Change in baseline scores, SANS question 25: Global rating of attention [6]: −0.5
- Change in baseline scores, SANS score [6]: −10.4
- Change in baseline scores, SANS sub-scale 4 (anhedonia/asociality) [6]: −5.1
- Change in baseline scores, SANS sub-scale 5 (disturbance of attention) [6]: −1.8
- Change in baseline scores, SANS question 15: Impersistence at work or school [7]: −0.3
- Change in baseline scores, SANS question 18: Recreational interests and activity [7]: −0.3
- Change in baseline scores, SANS question 19: Sexual interest and activity [7]: 0.0
- Change in baseline scores, SANS question 20: Ability to feel closeness and intimacy [7]: 0.0
- Change in baseline scores, SANS question 21: Relationships with friends and peers [7]: −0.1
- Change in baseline scores, SANS question 22: Global rating of anhedonia [7]: −0.2
- Change in baseline scores, SANS question 23: Social inattentiveness [7]: 0.2
- Change in baseline scores, SANS question 24: Inattentiveness during mental status testing [7]: −0.1
- Change in baseline scores, SANS question 25: Global rating of attention [7]: 0.0
- Change in baseline scores, SANS score [7]: −3.6
- Change in baseline scores, SANS sub-scale 4 (anhedonia/asociality) [7]: −0.4
- Change in baseline scores, SANS sub-scale 5 (disturbance of attention) [7]: 0.1
- Change in baseline scores, SANS question 15: Impersistence at work or school: difference (CBD vs placebo, all patients, P = 0.0187): (−0.4)
